One assay relates to AKT. As to the kind of experiment: AKT serine phosphorylation (Western blot) in KGF-stimulated DU145 cells. The conditions noted are these: DU145, 1×10^−8 M, KGF 10 ng/ml. The assay is classed as cell-based, human. The procedure: (§1) Immunoprecipitation and Western blot analysis. Protein extraction and immunoprecipitation were performed as previously described (Bonaccorsi et al. 1997). Briefly, cells were scraped in PBS supplemented with 1 mM Na3VO4, centrifuged and resuspended in lysis buffer (20 mM Tris, pH 7.4, 150 mM NaCl, 0.25% NP-40, 1 mM Na3VO4, 1 mM phenylmethyl-sulfonyl fluoride (PMSF)). After protein measurement (Coomassie kit), aliquots of cell lysates containing equal amount of proteins (500 ug) were incubated for 1 hour with 30 ul of Protein A (or Protein G)-Sepharose for preclearing. Precleared lysates were then incubated for 1 hour using 5 ug of specific anti-KGFR antibodies on ice followed by overnight incubation at 4° C. with 30 ul of Protein A (or Protein G)-Sepharose. The immunobeads were washed three times in lysis buffer and then resuspended in 10 ul of 2× Laemmli's reducing sample buffer (62.5 mM Tris pH 6.8, 10% glycerol, 2% SDS, 2.5% pyronin and 200 mM dithiothreitol), boiled at 95° C. for 5 minutes and loaded onto 8% polyacrylamide-bisacrylamide gels. […]

Assay [1] has as its system DU145 cells. As to the kind of experiment: Annexin-V binding assay (phosphatidylserine exposure, apoptosis). The assay is classed as cell-based, human. The note with it: DU145, 8 hours, 1×10^−8 M; control 57±1.7; n=6, p=0.017. Here is the method: Annexin-V binding assay. Annexin-V binding assay was used to detect translocation of membrane phosphatidylserine (PS) from the inner to the outer side of the plasma membrane, since the exposure of PS is considered an early sign of apoptosis (Kagan et al. 2000). The assay was performed by using the “Annexin-V-Fluos staining Kit” (Roche). Before treatment, cells (1×10^6) were kept in serum-free medium for at least 24 h, then cells were incubated for 8 hours in the presence or absence of Compound 1 (1×10^−8 M), cells (1×10^6) were washed, trypsinized, centrifuged. After two washed in PBS, cells were resuspended in 100 ul of incubation buffer (supplied by manufacturer), 2 ul of Annexin-V-Fluos labeling reagent (Ann-V-F, Annexin-V conjugated to fluorescein, supplied at the 200× concentration by Roche) and 2 ul of propidium iodide solution (PI, 30 ug/ml in PBS) were added. After incubation (15 minutes in the dark at room temperature) samples were analyzed by flow cytometry. For each experimental set, two cell suspensions were prepared for instrumental setting and data analysis: 1) by omitting both Ann-V-F and PI staining (nonspecific fluorescence sample), and 2) by omitting only the PI staining (sample for compensation, see below). […] Fluorescence compensation was set by acquiring […] labeled with only Ann-V-F. For each sample 10.000 events were recorded at flow rate of 200/300 cells/s. […]

The test system of assay [2] is DU145 cells. As to the kind of experiment: Cell proliferation assay (cell counting), DU145. The assay is classed as cell-based, human. Here is the method: (§2) Cell proliferation assay: All proliferation tests were performed after 24 h of cell starvation in phenol red- and serum-free medium containing 0.1% BSA. After starvation, cells were incubated in the same medium as before, with or without specific stimuli. Thereafter, cells were trypsinized, and each experimental point was derived from counting in the hemocytometer and then averaging at least six different fields for each well as previously reported (Crescioli et al. 2003). Experiments were performed seeding 4×10^4 cells onto 12-well plates in growth medium and incubated for 48 h with: 1) increasing concentrations of 1-alpha-fluoro-25-hydroxy-16,23E-diene-26,27-bishomo-20-epi-cholecalciferol (1×10^−12, 1×10^−11, 1×10^−10, 1×10^−9, 1×10^−8 M) with or without fixed concentration of KGF (10 ng/ml) or fixed concentration of bFGF (10 ng/ml); 2) fixed concentration of LY 294002 (10 nM) with or without KGF (10 ng/ml). In the same experiment each experimental point was repeated in triplicate and experiments were performed at least three times. Cell growth results are expressed as the percentage of growth compared with their relative controls.
Statistical analysis: All the data are shown as mean±SEM of the indicated number of experiments. Statistical analysis was performed with ANOVA and Student's T test for unpaired and, when applicable, for paired data. IC50 for dose response curves were calculated using the program ALLFIT.

Assay [3] concerns DU145 cells. As to the kind of experiment: Matrigel invasion assay (Boyden chambers), DU145. The assay is classed as cell-based, human. The conditions noted are these: 1×10^−8 M, KGF 10 ng/ml, 24 h, no pre-incubation. The procedure: Invasion assay: Invasion assays were performed as described previously (Bonaccorsi et al. 2000 and 2004a and 2004b) according to Albini et al. (1987) using the Boyden chambers equipped with 8 um porosity polyvinylpyrrolidone-free polycarbonate filters (VWR International, Milan, Italy). A thin layer of Matrigel solution (50 ug/ml) was overlaid on the upper surface of the filter and allowed to gel by incubating the filters at 37° C. for 30 min. Cell ability to invade the substrate was assessed by using some different stimuli: keratinocyte growth factor, KGF (10 ng/ml), in presence or in absence of the inhibitor, 1-alpha-fluoro-25-hydroxy-16,23E-diene-26,27-bishomo-20-epi-cholecalciferol (1×10^−8 M). These molecules were added to the bottom well of the Boyden chambers. 9.5×10^4 cells were then added to the top of the chambers and incubated for 24 h at 37° C. Migrated cells were quantitated by counting cells with a Zeiss microscope (Oberkochen, Germany) equipped with brightfield optics (40× magnification). Results are expressed as the percentage of number of migrated cells per high-power field respect to control.

Assay [4] relates to prostate. The conditions noted are these: phase II clinical trials for BPH, preliminary results (Montorsi, 2005); cited from earlier work.
Another assay has as its system PI3K. As to the kind of experiment: PI3K assay (immunokinase) after KGF stimulation of DU145 cells. The assay is classed as cell-based, human. The conditions noted are these: DU145, 1×10^−8 M, KGF 10 ng/ml. The procedure: PI3K assay: PI3K activity was evaluated in vitro assay as previously described (Luconi et al. 2004). Briefly, cells were stimulated with KGF (5 min) in the presence or absence of 1-alpha-fluoro-25-hydroxy-16,23E-diene-26,27-bishomo-20-epi-cholecalciferol, scraped in PBS supplemented with 1 mM Na3VO4, centrifuged and extracted with lysis buffer (20 mM Tris, pH 7.4, 137 mM NaCl, 1 mM CaCl2, 1 mM MgCl2, 1% NP-40, 1 mM Na3VO4, 1 mM PMSF). After measurement of proteins, the aliquots of cell extracts containing equivalent amount of proteins (500 ug) were incubated for 1 hour with 50 ul of Protein G-Sepharose for preclearing. Precleared lysates were then incubated with an antiphosphotyrosine PY20 antibody overnight at 4° C. with 50 ul of Protein G-Sepharose as described above. The Sepharose beads were washed two times with lysis buffer and twice with a 10 mM Tris-HCl (pH 7.4) containing 0.1 mM EGTA and 5 mM LiCl. After removal of the last wash, the beads were suspended in kinase buffer (10 mM Tris-HCl, 150 mM NaCl, 5 mM EDTA) containing 20 ug of L-alpha-phosphatidylinositol, 25 mM MgCl2 and 10 uCi of [gamma-^32P]ATP, and incubated for 20 min at room temperature. The reaction was stopped by the addition of 60 ul of HCl 6M and 160 ul of a mixture of chloroform and methanol (1:1). […] Quantifications of the bands was performed using a Kodak image analysis system.

For another assay, the system named is KGF receptor (KGFR). The assay is described as follows: KGF-induced KGFR autotransphosphorylation (immunoprecipitation, Western blot) in DU145 cells. The assay is classed as cell-based, human. Here is the method: as §1
In general terms: A western blot detects proteins with antibodies after separation by electrophoresis.

A further assay relates to human BPH cells. The conditions noted are these: primary cultures of human BPH cells; Crescioli et al. 2004; cited from earlier work.
In assay [5] the test system is prostate. The conditions noted are these: intact and castrated, testosterone-replaced rats; Crescioli et al. 2004; cited from earlier work.
The test system of the next assay is PC3 cells. As to the kind of experiment: Cell proliferation assay (cell counting), PC3. The assay is classed as cell-based, human. The note with it: control 100±17. Here is the method: as §2

For the molecule `C=C1/C(=C\C=C2/CCC[C@]3(C)C([C@@H](C)C/C=C/C(O)(CC)CC)=CC[C@@H]23)C[C@@H](O)C[C@@H]1F` [Compound 1, 1-alpha-fluoro-25-hydroxy-16,23E-diene-26,27-bishomo-20-epi-cholecalciferol], the “Effect on KGF-stimulated AKT serine phosphorylation” value in the assay on AKT is given as “inhibited KGF-stimulated AKT serine phosphorylation”. For the same molecule, the “percentage Annexin-V positive live cells” value with DU145 cells [1] came to 62±1.2 percentage. Moreover, the “percentage number of cells, bFGF + Compound 1” value with DU145 cells [2] (DU145, bFGF 10 ng/ml + Compound 1 1×10^−8 M, control 100±8.6) was 74.1±9.2 percentage. In the assay with DU145 cells [2] (Homo sapiens, DU-145, basal, 48 h, cell counting, read-out: IC50 of inhibition of basal DU145 cell proliferation), the IC50 came to 0.0221 ± 0.0191 nM. For the same molecule, in the assay with DU145 cells [2] (KGF 10 ng/ml, 48 h, increasing concentrations of the analogue), the “Inhibition of KGF-stimulated DU145 proliferation” value is “completely and dose-dependently inhibits proliferation”. In addition, the “Effect on KGF-stimulated Matrigel invasion of DU145 cells” value in the assay with DU145 cells [3] is “completely inhibited”. Also, in the assay on prostate [4], the “Prostate volume compared to placebo” value is “significant reduction of prostate volume”. In addition, in the assay on PI3K, the “Effect on KGF-stimulated PI3K activity” value is recorded as “inhibited the stimulatory effect of KGF on PI3K activity”. The “Effect on KGF-induced autotransphosphorylation of KGFR” value with KGF receptor (KGFR) (DU145, 5 minutes pre-incubation, 1×10^−8 M, KGF 10 ng/ml) is “abrogated”. Moreover, the “Inhibitory effect on KGFR autophosphorylation after alpha-amanitin” value with KGF receptor (KGFR) (DU145, after 4 hours incubation with 4 ug/ml alpha-amanitin) is on record as “still present”. Besides, the “Effect on prostate cell proliferation in vitro” value in the assay on human BPH cells is listed as “decrease prostate cell proliferation”. In addition, the “Effect on prostate growth in vivo” value in the assay on prostate [5] is on record as “inhibition of prostate growth”. Further, the “percentage number of cells, KGF + Compound 1” value in the assay on PC3 cells (PC3, KGF 10 ng/ml + Compound 1 1×10^−8 M) was found to be 69.9±9.9 percentage.
As for “bFGF: growth factor used as stimulus of DU145 proliferation (10 ng/ml)”, the “percentage number of cells, bFGF alone” value with DU145 cells [2] (DU145, bFGF 10 ng/ml, control 100±8.6) amounted to 138±19.5 percentage.

B1: KGF: Keratinocyte growth factor, stimulus, obtained from Prepro Tech EC (protein, UniProt P21781 32-194, looked up)
Fibroblast growth factor 7: CNDMTPEQMATNVNCSSPERHTRSYDYMEGGDIRVRRLFCRTQWYLRIDKRGKVKGTQEMKNNYNIMEIRTVAVGIVAIKGVESEFYLAMNKEGKLYAKKECNEDCNFKELILENHYNTYASAKWTHNGGEMFVALNQKGIPVRGKKTKKEQKTAHFLPMAIT
As to B1, the “percentage number of cells, KGF alone” value in the assay on PC3 cells (PC3, KGF 10 ng/ml) turned out to be 121.3±13 percentage.

The values are drawn from patent US20100009949A1, “NOVEL METHOD” (BioXell S.p.A., priority 2001, published 2010).
